# Measurements published in US20220313626A1, “SMALL MOLECULE INHIBITORS FOR TREATING CANCER IN A SUBJECT HAVING TUMORS WITH HIGH INTERSTITIAL PRESSURE” (GUANGZHOU MAXINOVEL PHARMACEUTICALS CO., LTD., priority 2019, published 2022).
# What was measured:
# B16F10 tumor cells = test: Anti-tumor efficacy in the B16F10 models; assay type: in vivo; details: for TGI / Tumor Volume: BID, 20 days
# Description: Materials required for the experiment: Antibody: mouse PD-1 antibody, Product specifications: 7.09 mg/mL (50 mg/mL), Lot No.: 695318A1 purchased from BioXcell, storage at 4 °C. Experimental animals: 60 C57BL/6 mice, female, 6˜8 weeks old, 17˜21 g, purchased from Shanghai Lingchang Biotechnology Co. Ltd. Formulation materials: castor oil (Cremophor RH40) , CAS No.: 61788-85-0, Lot No.: 29761847G0, purchased from Shanghai Xietai Chemical Co. Ltd.; β-cyclodextrin (SBE-β-CD), CAS No.: 128446-35-5, Lot No.: 20180110, purchased from Shanghai Shaoyuan Chemical Co. Ltd.; DMEM culture medium, Art. No.: 11995-065, Lot No.:2025378, purchased from Gibco Co. Ltd.; PBS, Art. No.: SH30256.01, Lot No.: AB10141338, purchased from HyClone Co. Ltd.; Fetal bovine serum: Art. No.: 04-002-1A, Lot No.: 1625436, purchased from Boehringer Ingelheim Co. Ltd.; Methyl cellulose (MC), Art. No.: M7027-250G, Lot No.: 079K0054V, purchased from Sigma.
# Cell preparation and implantation: The B16-F10 tumor cells (ATCC CRL6475™) were maintained in vitro as a monolayer culture in DMEM medium supplemented with 10% heat inactivated fetal bovine serum at 37° C. in an atmosphere of 5% CO2 in air. The tumor cells were routinely subcultured three times weekly by trypsin-EDTA treatment. The cells growing to a confluency around 70%-80% were harvested and counted for tumor inoculation.
# Tumor cell inoculation and group administration: The 100 uL cell suspension containing 1×10^6 B16F10 tumor cells (cells suspended in base DMEM medium) was inoculated into the right subcutaneous of mice. On the second day after inoculation, according to the order of tumor inoculation, stratified randomization was used to group and start the administration on the day of grouping.
# Preparation of test substances: Preparation of formulation: 700 mL of sterile water was added into the volumetric flask with magnetic stirring to have a vortex. 100 g of castor oil (Cremophor RH40) was added with a spoon slowly into the vortex and the solution was kept stirring. 200 g of β-cyclodextrin (SBE-β-CD) was added while the solution was kept stirring until the solution was clear, and the total volume was set to 1000 mL, which contained 10% (w/v) Cremophor RH40+20% (w/v) an aqueous solution of SBE-β-CD.
# Preparation of compound suspension: 169.16 mg compound was weighed, 14.012 mL 10% (w/v) Cremophor RH40+20% (w/v) SBE-β-CD aqueous solution were added, and the suspension solution with a concentration of 12.0 mg/mL was obtained by fully mixing with magnetic stirring. 6.0 mL of the compound suspension solution with concentration of 12.0 mg/mL was pipetted and 6.0 mL aqueous formulation solution was added. The suspension solution with a concentration of 6.0 mg/mL was obtained by fully mixing with magnetic stirring. 6.0 mL of the compound suspension solution with concentration of 6.0 mg/mL was pipetted and 6.0 mL aqueous formulation solution was added. The suspension solution with a concentration of 3.0 mg/mL was obtained by fully mixing with magnetic stirring. The compound suspension solution was prepared once a day.
# Preparation of mPD-1 antibody: 0.564 mL mPD-L1 antibody (7.09 mg/mL) original solution was pipetted and […] PBS solution was added. The solution was fully mixed and the final concentration of 1 mg/mL solution was obtained.
# Procedure: The mice in the vehicle group were weighed and recorded in the electronic balance according to their numbers. The mice in the vehicle group were given prepared formulation solution twice a day by oral administration according to their body weight with a capacity of 0.1 mL/10 g. Each mouse spent about 20 seconds and 10 mice in each group shared for about 5 minutes.
# The mice in the antibody (10 mg/kg) group were weighed and recorded in the electronic balance according to their numbers. The mice in the antibody group were given prepared antibody solution twice a week by IP administration according to their body weight with a capacity of 0.1 ml/10 g. […]
# [1] = test system: PD-L1 suppressed human T-cells; test: Activation of T-Cell Suppressed by PD-L1 (IFN-g readout); assay type: cell-based; details: human T cells co-cultured with Hep3B cells transfected with human PD-L1; dose dependent; Keytruda positive control
# From the text: To measure the cellular activity of the compound, a protocol of Activation of T-Cell Suppressed by PD-L1 was used. In this protocol, human Hep3B cells were stably transfected with human PD-L1. The human T cells containing PD-1 were inactivated by co-culturing with these PD-L1 transfected cells. Then anti-PD-1 antibody Keytruda® was selected as the reference to profile the compound for its activation of PD-L1 suppressed human T-cells.
# [2] = B16F10, C57BL/6 mice, 30 mg/kg, PO
# [3] = B16F10, C57BL/6 mice, 60 mg/kg, PO
# [4] = B16F10, C57BL/6 mice, 120 mg/kg, PO
smiles,measurement,setting,value
Cc1c(/C=C/c2cc(CN[C@@](C)(CO)C(=O)O)ccc2C(F)(F)F)cccc1-c1ccccc1 [Compound],growth of subcutaneous transplanted melanoma cell line in mice,"B16F10 tumor cells; B16F10, C57BL/6 mice",significantly inhibit the growth
same,TGI,B16F10 tumor cells; [2],35.59%
same,Tumor Volume,B16F10 tumor cells; [2],795.99 ± 112.92 mm^3
same,TGI,B16F10 tumor cells; [3],38.87%
same,Tumor Volume,B16F10 tumor cells; [3],755.48 ± 155.85 mm^3
same,TGI,B16F10 tumor cells; [4],47.35%
same,Tumor Volume,B16F10 tumor cells; [4],650.67 ± 157.53 mm^3
same,tolerability (adverse reactions),"B16F10 tumor cells; C57BL/6 mice, PO, BID up to 120 mg/kg",well tolerated
same,"activation of PD-L1 suppressed human T cell, indicated by increase of cytokine IFN-g",[1],effectively restored the activation
